Molecules are shown by their SMILES.

The target in one assay is T1, CK1α (Homo sapiens, UniProt P48729+Q96SW2).
T1 construct: HEK293 clonal lines with CRISPR KI HiBiT tag on CSNK1A1; host or cells: HEK293 clonal line, CRISPR knock-in HiBiT at the CSNK1A1 locus, stably expressing LgBiT
Nature of the assay: CK1α NanoBit Assay (HiBiT-tagged CSNK1A1 in HEK293 cells, luminescence). Type of assay: cell-based. Conditions: 24 h. As for the experimental part: HEK293 clonal lines with CRISPR KI HiBiT tag on CSNK1A1 and stably expressing LgBiT protein were obtained from Promega (Madison, WI). Cells were plated at 5000 cells per well using Multiflo (BioTek) in 384-well white solid bottom plates (Corning, 3570BC) in 25 μl volume in DMEM media (DMEM, high glucose, HEPES, no phenol red (ThermoFisher Scientific, 21063029)) containing 10% FBS (Corning, 35-075-CV), 1% Penicillin/Streptomycin ((ThermoFisher Scientific, 15140-122), and 0.2% Endurazine (Nano-Glo Endurazine Live Cell Substrate (Promega, N2571)). Cells were incubated for 16 hours at 37° C., 5% CO2. Depending on experiment 25 or 75 nL of a compound at 10 mM were added into the plate using an Echo® 650 liquid handler (Labcyte) to achieve final concentration of 10 or 30 μM in wells. Cells were incubated at 37° C., 5% CO2 for 24 hours and then signal was read on a Pherastar FSX using “LUM plus” optic module.
Data analysis was performed in Scinamic (Scinamic, Cambridge, MA). Luminescence response (R) was calculated by the formula: response=100*(S−N)/(P−N) where S is the signal of the well, N and P the mean negative and positive control values respectively of the same plate. The luminescence response was then fitted in Scinamic using a 3-parameter agonist logistic fit (hillslope=1, EC50>0, top/bottom unconstrained).
DC50 data are reported in Table 2 for compounds in Table 1. In Table 2 below, According to the code, A represents a DC50 value of ≤0.1 μM, B represents a DC50 value >0.1 μM and ≤1 μM, C represents an DC50 value >1 μM.
On the technique in general: With HiBiT, luminescence reflects the tagged protein that the partner subunit can reach.

The next assay has as its target CRBN/DDB1 (Homo sapiens, UniProt Q96SW2). Nature of the assay: HTRF binding assay (displacement of Cy5-thalidomide probe from CRBN/DDB1). Conditions: CRBN/DDB1 2.5 nM, Cy5-Thalidomide 100 nM, 30 min; geometric mean; read-out: HTRF_Thali_Disp_DR_geo_IC50. From the text:
Binding of test compounds to CRBN/DDB1 was monitored in an HTRF assay using 1-[5-({2-[2-(2-{[2-(2,6-dioxopiperidin-3-yl)-1,3-dioxo-2,3-dihydro-1H-isoindol-4-yl]oxy}acetamido)ethoxy]ethyl}carbamoyl)pentyl]-3,3-dimethyl-2-[(1E,3E)-5-[(2E)-1,3,3-trimethyl-5-sulfo-2,3-dihydro-1H-indol-2-ylidene]penta-1,3-dien-1-yl]-3H-indol-1-ium-5-sulfonate as a fluorescent probe. In this assay, compounds displace the fluorescently labeled thalidomide-based probe bound to CRBN and fluorescence is monitored with increasing compound concentration. Assays were conducted in Greiner white 384 well HiBase plates (Cat. No 784075-25) in 10 μL total volume. A one pot detection solution of CRBN/DDB1 (2.5 nM), anti-His Terbium Cryptate Gold (1×, PerkinElmer Cat. #: 61HI2TLB), and Cy5-Thalidomide (100 nM, Tenova Cat.: T52461) was prepared in 20 mM HEPES, 20 mM NaCl, 0.2 mM TCEP, 0.2 mM EDTA, and 0.005% Tween20 was dispensed to each assay plate. Test compounds were stored in dry, ambient temperatures at 10 mM. A 10-point, 1:3 dilution series was prepared from 10 mM stock concentrations in Echo-compatible LDV plates. 10 nL of each compound dilution series was dispensed into assays wells using an Echo 650 (Labcyte inc. USA). 10 nL of 10 mM lenalidomide (Selleckchem Cat no. S1029) was transferred into the active-control wells for the assay and 10 nL of DMSO was transferred into the negative control wells. The assay was then allowed to incubate for 30 min at ambient temperature after transferring the test compounds. Plate measurements were taken on a Pherastar FSX (BMG Labtech, Germany) using the HTRF Red filter (Ex. 337 nm, em1: 620 nm, em2: 665 nm) (Flashes: 50, Integration time: 60-400 μs, Z-height: 10 mm, Ratio-multiplier: 10,000). Analysis, HTRF ratio and IC50 values were derived using KNIME analytics (KNIME Zurich) transformation and fitting within Collaborative Drug Discovery (Collaborative Drug Discovery USA) using a 4-parameter logistic fit. HTRF ratio calculation was performed using the following formula: […]
where em665 nm represents the measured emission at 665 nm upon excitation at 337 nm and em620 nm the measured emission at 620 nm upon excitation at 337 nm. The 4 parameter logistic fitting model was performed using the following formula: […]
where Y represents the HTRF ratio response (as defined previously), X the compound concentration in μM, Ymin the minimum response plateau, Ymax the maximum response plateau, IC50 the concentration of […] that gives a response half way between Ymin and Ymax and HillSlope the steepness of the family of curves. No fitting model constraints was applied on Ymin, or Ymax whilst IC50>0 and −0.5>HillSlope>−3 Cheng-Prusoff transformation
Ki values were derived from the geometric mean of the IC50 values using the Cheng-Prusoff transformation:
where [L] represents the concentration of fluorescent probe in […], Kd the affinity (binding constant) of the fluorescent probe in units of μM and IC50 the concentration of agonist that gives a response halfway between Ymin and Ymax (as described in 1.2.1)
Analysis and IC50 values were derived using KNIME analytics (KNIME, Zurich) transformation and fitting within Collaborative Drug Discovery (Collaborative Drug Discovery, USA) as described in 1.2.1. Ki values were derived from the geometric mean of the IC50 values using the Cheng-Prusoff transformation as described in 2.2.2. Data was visualized in GraphPad Prism 8.1.2 (GraphPad, USA) and reported as mean and standard deviation. Microsoft Office Excel 2012 (Redmond, WA) was used for calculation of mean and standard deviation.
IC50 data are reported in Table 3 for compounds in Table 1. In Table 3 below, According to the code, A represents a IC50 value of ≤0.1 μM, B represents a IC50 value >0.1 μM and ≤1 μM, C represents an IC50 value >1 μM.
A general note: Time-resolved FRET reads energy transfer from a long-lived donor to a nearby acceptor.

T1 sequence (P48729 whole entry): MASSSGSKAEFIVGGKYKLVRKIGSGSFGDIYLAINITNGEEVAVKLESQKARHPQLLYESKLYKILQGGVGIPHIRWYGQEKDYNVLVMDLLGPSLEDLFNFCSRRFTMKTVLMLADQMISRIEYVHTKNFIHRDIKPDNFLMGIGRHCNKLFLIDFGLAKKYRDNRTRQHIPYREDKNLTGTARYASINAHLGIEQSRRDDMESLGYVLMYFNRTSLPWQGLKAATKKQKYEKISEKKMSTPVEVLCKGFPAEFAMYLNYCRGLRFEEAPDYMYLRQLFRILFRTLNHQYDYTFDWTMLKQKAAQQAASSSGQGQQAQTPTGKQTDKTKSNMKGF
T1 sequence (Q96SW2 whole entry): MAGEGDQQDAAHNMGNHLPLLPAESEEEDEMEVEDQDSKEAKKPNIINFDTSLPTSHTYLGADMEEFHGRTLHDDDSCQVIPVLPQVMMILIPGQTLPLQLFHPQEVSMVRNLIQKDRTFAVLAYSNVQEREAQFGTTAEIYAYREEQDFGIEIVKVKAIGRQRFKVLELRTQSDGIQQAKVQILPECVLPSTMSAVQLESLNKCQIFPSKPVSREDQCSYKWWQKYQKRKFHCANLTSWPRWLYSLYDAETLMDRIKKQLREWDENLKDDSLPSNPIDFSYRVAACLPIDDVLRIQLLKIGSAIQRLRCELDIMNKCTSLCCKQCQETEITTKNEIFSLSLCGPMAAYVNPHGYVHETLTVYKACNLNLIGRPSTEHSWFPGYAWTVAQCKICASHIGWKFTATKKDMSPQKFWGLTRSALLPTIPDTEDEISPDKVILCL
T1 sequence (Q16531 whole entry partner): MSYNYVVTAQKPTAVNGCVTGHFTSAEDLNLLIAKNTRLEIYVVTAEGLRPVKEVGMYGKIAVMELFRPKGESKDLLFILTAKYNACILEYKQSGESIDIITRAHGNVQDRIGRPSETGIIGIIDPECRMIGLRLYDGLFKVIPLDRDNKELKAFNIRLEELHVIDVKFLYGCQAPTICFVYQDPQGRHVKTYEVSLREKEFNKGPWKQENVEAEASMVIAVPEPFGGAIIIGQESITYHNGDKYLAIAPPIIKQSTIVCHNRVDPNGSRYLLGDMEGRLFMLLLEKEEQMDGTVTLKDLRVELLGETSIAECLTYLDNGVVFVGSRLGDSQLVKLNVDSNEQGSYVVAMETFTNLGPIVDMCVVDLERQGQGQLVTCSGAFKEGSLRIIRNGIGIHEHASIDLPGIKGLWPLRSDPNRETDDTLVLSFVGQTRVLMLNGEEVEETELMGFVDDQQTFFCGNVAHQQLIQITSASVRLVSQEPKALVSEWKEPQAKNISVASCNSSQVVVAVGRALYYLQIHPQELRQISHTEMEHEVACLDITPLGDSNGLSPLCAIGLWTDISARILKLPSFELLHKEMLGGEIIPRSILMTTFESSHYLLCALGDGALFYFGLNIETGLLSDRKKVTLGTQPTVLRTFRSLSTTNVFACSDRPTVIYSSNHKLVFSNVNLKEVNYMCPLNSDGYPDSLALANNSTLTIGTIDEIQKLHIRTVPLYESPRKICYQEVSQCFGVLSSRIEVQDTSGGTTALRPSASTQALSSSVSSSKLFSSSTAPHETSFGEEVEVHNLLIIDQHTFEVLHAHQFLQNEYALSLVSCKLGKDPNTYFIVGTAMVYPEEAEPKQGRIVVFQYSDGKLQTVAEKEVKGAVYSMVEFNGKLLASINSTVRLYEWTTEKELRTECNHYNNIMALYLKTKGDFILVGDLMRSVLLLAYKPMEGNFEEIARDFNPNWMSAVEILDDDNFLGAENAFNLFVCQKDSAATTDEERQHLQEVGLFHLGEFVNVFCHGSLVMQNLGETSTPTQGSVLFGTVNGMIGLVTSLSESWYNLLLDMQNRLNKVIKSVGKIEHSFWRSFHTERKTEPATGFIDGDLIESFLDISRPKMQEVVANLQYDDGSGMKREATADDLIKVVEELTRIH
CRBN/DDB1, sequence (Q96SW2 whole entry): as the sequence (Q96SW2 whole entry) above
CRBN/DDB1, sequence (Q16531 whole entry partner): as the sequence (Q16531 whole entry partner) above

Regarding `CC1CN(c2ccc3c(c2)CN(C2CCC(=O)NC2=O)C3=O)C(=O)N1c1ccc(C(F)(F)F)nc1` (stereo not shown) [Compound 121, 3-(5-(4-methyl-2-oxo-3-(6-(trifluoromethyl)pyridin-3-yl)imidazolidin-1-yl)-1-oxoisoindolin-2-yl)piperidine-2,6-dione], on CK1α, the DC50 is at most 0.1 µM. Also, on CRBN/DDB1, the IC50 was in the range of 100 to 1000 nM.

For `Cc1ccc(N2C(=O)N(c3ccc4c(c3)CN(C3CCC(=O)NC3=O)C4=O)CC2C)cn1` (stereo not shown) [Compound 122, 3-(5-(4-methyl-3-(6-methylpyridin-3-yl)-2-oxoimidazolidin-1-yl)-1-oxoisoindolin-2-yl)piperidine-2,6-dione], the DC50 on CK1α lay in the range of 0.1 to 1 µM. Further, the IC50 at CRBN/DDB1 is above 1000 nM.

Take `O=C1CCC(N2Cc3cc(N4CCN(c5ccc6c(c5)OCC6)C4=O)ccc3C2=O)C(=O)N1` (stereo not shown) [Compound 127, 3-(5-(3-(2,3-dihydrobenzofuran-6-yl)-2-oxoimidazolidin-1-yl)-1-oxoisoindolin-2-yl)piperidine-2,6-dione]: the DC50 at CK1α was at most 0.1 µM. Moreover, the IC50 at CRBN/DDB1 is above 1000 nM.

For the molecule `COCc1ccc(N2CCN(c3ccc4c(c3)CN(C3CCC(=O)NC3=O)C4=O)C2=O)cc1` (stereo not shown) [Compound 128, 3-(5-(3-(4-(methoxymethyl)phenyl)-2-oxoimidazolidin-1-yl)-1-oxoisoindolin-2-yl)piperidine-2,6-dione], on CK1α, the DC50 is at most 0.1 µM. Also, the IC50 at CRBN/DDB1 was in the range of 100 to 1000 nM.

In the case of `O=C1CCC(N2Cc3cc(N4CCN(c5ccc(C(F)F)cc5)C4=O)ccc3C2=O)C(=O)N1` (stereo not shown) [Compound 129, 3-(5-(3-(4-(difluoromethyl)phenyl)-2-oxoimidazolidin-1-yl)-1-oxoisoindolin-2-yl)piperidine-2,6-dione], the DC50 at CK1α is at most 0.1 µM. In addition, the IC50 at CRBN/DDB1 lay in the range of 100 to 1000 nM.

`Cc1ccc(N2C(=O)N(c3ccc4c(c3)CN(C3CCC(=O)NC3=O)C4=O)C[C@H]2C)cc1` (stereo partly drawn) [Compound 130, 3-(5-((R)-4-methyl-2-oxo-3-(p-tolyl)imidazolidin-1-yl)-1-oxoisoindolin-2-yl) piperidine-2,6-dione] registered a DC50 on CK1α of at most 0.1 µM. Besides, on CRBN/DDB1, the IC50 was in the range of 100 to 1000 nM.

`O=C1CCC(N2Cc3cc(N4CCN(c5ccc(C6CCC6)cc5)C4=O)ccc3C2=O)C(=O)N1` (stereo not shown) [Compound 131, 3-(5-(3-(4-cyclobutylphenyl)-2-oxoimidazolidin-1-yl)-1-oxoisoindolin-2-yl)piperidine-2,6-dione] registered a DC50 at CK1α of at most 0.1 µM. Besides, the IC50 at CRBN/DDB1 is above 1000 nM.

In turn, `C[C@@H]1CN(c2ccc3c(c2)CN(C2CCC(=O)NC2=O)C3=O)C(=O)N1c1cnccn1` (stereo partly drawn) [Compound 132, 3-(5-((R)-4-methyl-2-oxo-3-(pyrazin-2-yl)imidazolidin-1-yl)-1-oxoisoindolin-2-yl)piperidine-2,6-dione] had a DC50 at CK1α of at most 0.1 µM. The IC50 on CRBN/DDB1 lay within 100 to 1000 nM.

On CK1α, `COC1(c2ccc(N3CCN(c4ccc5c(c4)CN(C4CCC(=O)NC4=O)C5=O)C3=O)cc2)CC1` (stereo not shown) [Compound 133, 3-(5-(3-(4-(1-methoxycyclopropyl)phenyl)-2-oxoimidazolidin-1-yl)-1-oxoisoindolin-2-yl)piperidine-2,6-dione] displayed a DC50 of at most 0.1 µM. The IC50 on CRBN/DDB1 is 100 to 1000 nM.

Turning to `COCc1ccc(N2C(=O)N(c3ccc4c(c3)CN(C3CCC(=O)NC3=O)C4=O)C[C@H]2C)cc1` (stereo partly drawn) [Compound 134, 3-(5-((R)-3-(4-(methoxymethyl)phenyl)-4-methyl-2-oxoimidazolidin-1-yl)-1-oxoisoindolin-2-yl)piperidine-2,6-dione], the DC50 on CK1α is at most 0.1 µM. The IC50 at CRBN/DDB1 lay in the range of 100 to 1000 nM.

In turn, `CC1(c2ccc(N3CCN(c4ccc5c(c4)CN(C4CCC(=O)NC4=O)C5=O)C3=O)cc2)CC1` (stereo not shown) [Compound 135, 3-(5-(3-(4-(1-methylcyclopropyl)phenyl)-2-oxoimidazolidin-1-yl)-1-oxoisoindolin-2-yl)piperidine-2,6-dione] yielded a DC50 on CK1α of at most 0.1 µM. The IC50 on CRBN/DDB1 was above 1000 nM.

Turning to `COCc1cccc(N2CCN(c3ccc4c(c3)CN(C3CCC(=O)NC3=O)C4=O)C2=O)c1` (stereo not shown) [Compound 136, 3-(5-(3-(3-(methoxymethyl)phenyl)-2-oxoimidazolidin-1-yl)-1-oxoisoindolin-2-yl)piperidine-2,6-dione], the DC50 on CK1α is at most 0.1 µM. Also, on CRBN/DDB1, the IC50 was in the range of 100 to 1000 nM.

On to `C[C@@H]1CN(c2ccc3c(c2)CN(C2CCC(=O)NC2=O)C3=O)C(=O)N1C1CCCC1` (stereo partly drawn) [Compound 138, 3-(5-((R)-3-cyclopentyl-4-methyl-2-oxoimidazolidin-1-yl)-1-oxoisoindolin-2-yl)piperidine-2,6-dione], for which, on CK1α, the DC50 is at most 0.1 µM. Moreover, the IC50 on CRBN/DDB1 was in the range of 100 to 1000 nM.

With `CO[C@@H](C)c1cccc(N2CCN(c3ccc4c(c3)CN(C3CCC(=O)NC3=O)C4=O)C2=O)c1` (stereo partly drawn) [Compound 139, 3-(5-(3-(3-((S)-1-methoxyethyl)phenyl)-2-oxoimidazolidin-1-yl)-1-oxoisoindolin-2-yl)piperidine-2,6-dione], the DC50 at CK1α was at most 0.1 µM. In addition, the IC50 on CRBN/DDB1 was in the range of 100 to 1000 nM.

`O=C1CCC(N2Cc3cc(N4CCN(c5cccc6c5CCO6)C4=O)ccc3C2=O)C(=O)N1` (stereo not shown) [Compound 140, 3-(5-(3-(2,3-dihydrobenzofuran-4-yl)-2-oxoimidazolidin-1-yl)-1-oxoisoindolin-2-yl)piperidine-2,6-dione] returned a DC50 on CK1α of at most 0.1 µM. For the same molecule, on CRBN/DDB1, the IC50 lay in the range of 100 to 1000 nM.

Turning to `C[C@@H]1CN(c2ccc3c(c2)CN(C2CCC(=O)NC2=O)C3=O)C(=O)N1C1CCC1` (stereo partly drawn) [Compound 142, 3-(5-((R)-3-cyclobutyl-4-methyl-2-oxoimidazolidin-1-yl)-1-oxoisoindolin-2-yl)piperidine-2,6-dione], on CK1α, the DC50 is at most 0.1 µM. Also, the IC50 at CRBN/DDB1 lay in the range of 100 to 1000 nM.

Take `COC[C@@H]1CN(c2ccc3c(c2)CN(C2CCC(=O)NC2=O)C3=O)C(=O)N1c1ccc(C)cc1` (stereo partly drawn) [Compound 143, 3-(5-((S)-4-(methoxymethyl)-2-oxo-3-(p-tolyl)imidazolidin-1-yl)-1-oxoisoindolin-2-yl)piperidine-2,6-dione]: the DC50 at CK1α was at most 0.1 µM. The IC50 on CRBN/DDB1 fell in the range of 100 to 1000 nM.
